Results: patent US5798362A, “Quinazolinyl-amino derivatives having α-antagonist activity” (Recordati S.A. Chemical and Pharmaceutical Company, priority 1994, dated 1998)
Where a name gives a salt, the structure may show the parent alone. Read-outs that look alike come from different tables or passages of the source.

Key:
[1] = test system: dyastolic arterious pressure; assay: Hypotensive activity in the normotensed anesthetized rat; format: in vivo; settings: iv, endovenous administration, read-out: DE25 (dose which induces a lowering of 25% of the dyastolic arterious pressure)
Experimental: (§1) Male Sprague Dawley rats (Crl: CD' BR) of 175-300 g b.w., male spontaneously hypertensive rats, Okamoto strain, female Albino Swiss mice [Crl:CD-1 (ICR) BR] 20-30 g b.w., were obtained from Charles River, Italy. Animals were housed with free access to food and water and maintained on forced light-dark cycle at 22°-24° C. until the day of experiments.
(§2) Evaluation of the antihypertensive activity in chateterized spontaneously hypertensive rat (SH) chronic awake and of the hypotensive activity in the normotensed anesthethized rat
Normotensed rats with were prepared surgically at the moment of the test, after anesthesia with pentobarbital. Suitable chateters were introduced in the left carotid artery and the right jugular vein. The arterious chateter end was connected to a pressure transductor which sends the signal to a polygraph preamplifier. About 30' before the administration the arterious pressure was monitored and the registration of the parameters was performed after the administration, at various time according to the test protocol.
For the endovenous administration the administered volum was 0.5-1 ml/Kg, while for the oral administration was 5 ml/Kg.
Evaluation of data: in so far as the espression of the results is concerned, the pressure data were reported as percentage of the variation in respect to the base values.

[2] = test system: dyastolic arterious pressure; assay: Antihypertensive activity in catheterized awake spontaneously hypertensive rat (SHR); format: in vivo; settings: oral administration, read-out: DE25 (dose which induces a lowering of 25% of the dyastolic arterious pressure)
Experimental: as §1, §2
The SH rats are surgically prepared at least 24 hours before the test. The surgical operation was performed under neuroleptoanalgesia or barbituric anesthesia; the right carotid artery was exposed and a chateter suitable in dimensions and material was introducted in the vessel up to the aortic arch. […]
For endovenous administrations a second chateter similar to the one above described was introduced during the surgical operation into the left jugular vein and brought to the exterior as the arterious chateter. […] About 30' before administration the arterious pressure was monitored and the registration of the parameters was performed after administration at different times according to the test protocol. […]

[3] = biological target: α1-receptors ([3H]prazosin); assay: [3H]Prazosin binding (α1-receptors), rat cerebral cortices; settings: rat cerebral cortex, 0.35 nM [3H]prazosin, 25° C., 30 min; read-out: [3H] prazosine IC50
Experimental: Rat cerebral cortices were homogenized in 50 volumes of original wet weight of ice-cold 50 mM Tris-HCl buffer pH 7.4. The homogenates were centrifuged at 48,000 × g for 10 minutes, and the pellets were resuspended in the same volume of ice-cold buffer, centrifuged and resuspended two more times. […] The incubations were terminated by rapid filtration through Whatman GF/B, filters using a Brandel cell harvester and the filters were washed with 3×3 ml of ice-cold buffer. The radioactivity retained on the filters was determined by liquid scintillation counting. Data analysis The inhibition of specific binding of the radioligands by the tested drugs was analyzed to estimate the IC50 value by using the non-linear curve-fitting program Allfit [A. De Lean et al., Am. J. Physiol.

in vivo = settings: mouse
Experimental: 20-30 g b.w., were obtained from Charles River, Italy. Animals were housed with free access to food and water and maintained on forced light-dark cycle at 22°-24° C. until the day of experiments.
The acute toxicity of synthesized compounds was evaluated in female Albino Swiss mice after intraperitoneal and oral administration. Four logarithmic scaled doses of the compounds were dissolved or suspended in 0.5% Methocel and administered in a volume of 10 ml/kg to groups of 4 mice/dose. Mortality was recorded 7 days after the administration.

cloned α1A adrenoceptor = biological target: T1, cloned α1A adrenoceptor (Bos taurus, UniProt P18130); assay: Radioligand binding, cloned α1A adrenoceptor (previously α1C) expressed in COS-7 cells; settings: bovine brain α1A in COS-7 cells; mean of 2-4 experiments in triplicate, agreed within 10%
T1 construct: expressed in transfected cells; host or cells: COS-7 (transient)
T1 sequence (P18130 1-466): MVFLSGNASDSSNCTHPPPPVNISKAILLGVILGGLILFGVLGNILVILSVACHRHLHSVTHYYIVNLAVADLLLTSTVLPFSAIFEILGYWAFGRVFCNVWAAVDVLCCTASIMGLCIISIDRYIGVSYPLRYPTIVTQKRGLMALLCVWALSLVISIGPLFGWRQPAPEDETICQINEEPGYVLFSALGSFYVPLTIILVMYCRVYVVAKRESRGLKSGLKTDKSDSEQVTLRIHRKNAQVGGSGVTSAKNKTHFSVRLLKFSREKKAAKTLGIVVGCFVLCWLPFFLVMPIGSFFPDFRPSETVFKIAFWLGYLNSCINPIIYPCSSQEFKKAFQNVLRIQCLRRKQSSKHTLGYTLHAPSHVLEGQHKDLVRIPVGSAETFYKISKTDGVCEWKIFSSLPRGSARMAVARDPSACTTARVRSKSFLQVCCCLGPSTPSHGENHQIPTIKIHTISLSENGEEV
Experimental: (§3) Cloned animal α1 adrenoceptors
(§4) COS-7 cells were grown as monolayers in Dulbecco's modified Eagle's medium (DMEM), supplemented with 25 mM glucose, 10% bovine calf serum, 100 units/ml penicillin and 100 μg/ml streptomicyn sulfate.
(§5) Transfected cells from colture flask were washed two times with 5 ml phosphate buffered saline (PBS), scraped into 2 ml of 5 mM Tris-HCl, pH 7.4, containing 5 mM EDTA and 10 μM leupeptin, and lysed by sonication. The cell lysates were pelleted at 30000xg for 15 min at 4° C. and washed three times with 10 ml ice-cold 50 mM Tris-HCl, pH 7.4. Membranes were resuspended in 50 mM Tris-HCl, pH 7.4, containing 10 μM pargyline and 0.1% ascorbic acid, quickly frozen and stored at -70° C. until utilized.
(§6) Radioligand binding assays
Non-specific binding was determined in presence of 100 μM phentolamine. The reaction mixture was incubated for 30 min at 25° C. and then stopped by the addition of ice cold Tris-HCl buffer and rapid filtration through 0.2% polyethyleneimine pretreated Whatman GF/B fiber filters using Brandel cell harvester. The filters were then washed with 3×3 ml of ice-cold buffer and the radioactivity retained on the filters was counted in 10 ml of Filter Count (Packard) in a liquid scintillation spectrometer with a counting efficacy of 40%.
The inhibition of specific binding of the radioligands by the tested drugs was analyzed to estimate the IC50 value by using the non-linear curve-fitting program Allfit [A. De Lean et al., Am. J. Physiol.

cloned α1B adrenoceptor = biological target: T2, cloned α1B adrenoceptor (Mesocricetus auratus, UniProt P18841); assay: biochemical; format: binding; settings: syrian hamster α1B in COS-7 cells; mean of 2-4 experiments in triplicate, agreed within 10%
T2 sequence (P18841 1-515): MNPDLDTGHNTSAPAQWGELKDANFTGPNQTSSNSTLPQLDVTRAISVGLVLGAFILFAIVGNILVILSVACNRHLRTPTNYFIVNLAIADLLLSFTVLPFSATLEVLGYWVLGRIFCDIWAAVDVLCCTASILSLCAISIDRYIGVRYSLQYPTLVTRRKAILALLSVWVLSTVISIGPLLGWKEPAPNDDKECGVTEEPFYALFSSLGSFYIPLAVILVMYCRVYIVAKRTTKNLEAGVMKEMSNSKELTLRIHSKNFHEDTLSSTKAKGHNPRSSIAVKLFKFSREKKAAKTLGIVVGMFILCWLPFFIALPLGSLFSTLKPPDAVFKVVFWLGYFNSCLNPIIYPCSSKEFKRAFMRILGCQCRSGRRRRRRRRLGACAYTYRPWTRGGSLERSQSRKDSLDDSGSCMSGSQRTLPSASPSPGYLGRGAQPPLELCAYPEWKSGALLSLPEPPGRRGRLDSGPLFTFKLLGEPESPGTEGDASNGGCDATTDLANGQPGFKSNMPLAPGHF
Experimental: as §3, §4, §5, §6
(§7) Non-specific binding was determined in presence of 100 μM phentolamine. […] The filters were then washed with 3×3 ml of ice-cold buffer and the radioactivity retained on the filters was counted in 10 ml of Filter Count (Packard) in a liquid scintillation spectrometer with a counting efficacy of 40%.
(§8) The inhibition of specific binding of the radioligands by the tested drugs was analyzed to estimate the IC50 value by using the non-linear curve-fitting program Allfit [A. De Lean et al., Am. […]

cloned α1D adrenoceptor = biological target: T3, cloned α1D adrenoceptor (Rattus norvegicus, UniProt P23944); assay: Radioligand binding, cloned α1D adrenoceptor (previously α1A/D) expressed in COS-7 cells; settings: rat brain α1D in COS-7 cells; mean of 2-4 experiments in triplicate, agreed within 10%
T3 construct: expressed in transfected cells; host or cells: COS-7 (transient)
T3 sequence (P23944 1-561): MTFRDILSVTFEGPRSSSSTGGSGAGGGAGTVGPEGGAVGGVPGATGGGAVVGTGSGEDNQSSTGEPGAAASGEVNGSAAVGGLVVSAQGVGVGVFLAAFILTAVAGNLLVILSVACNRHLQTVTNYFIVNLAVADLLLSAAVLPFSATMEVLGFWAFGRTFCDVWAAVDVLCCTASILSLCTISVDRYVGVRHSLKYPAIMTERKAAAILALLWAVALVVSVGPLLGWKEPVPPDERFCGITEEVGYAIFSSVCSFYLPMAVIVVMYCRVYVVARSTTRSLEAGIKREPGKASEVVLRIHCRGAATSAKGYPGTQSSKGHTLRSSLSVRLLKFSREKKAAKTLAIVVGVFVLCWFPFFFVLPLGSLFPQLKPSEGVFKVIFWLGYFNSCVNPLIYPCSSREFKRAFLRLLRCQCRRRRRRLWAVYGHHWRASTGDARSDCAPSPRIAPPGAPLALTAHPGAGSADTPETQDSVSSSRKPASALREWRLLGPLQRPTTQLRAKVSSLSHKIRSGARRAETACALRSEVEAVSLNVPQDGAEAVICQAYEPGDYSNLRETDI
Experimental: as §3, §4, §5, §6, §7, §8

[4] = ip, mice, intraperitoneal, mortality 7 days after administration, read-out: DL50 i.p.
[5] = mice, oral, mortality 7 days after administration, read-out: DL50 p.o.

SMILES	ED25 [1] [mg/kg]	ED25 [2] [mg/kg]	IC50 [3] [nM]	LD50 at 168 h (in vivo; [4]) [mg/kg]	LD50 at 168 h (in vivo; [5]) [mg/kg]	IC50 (cloned α1A adrenoceptor) [nM]	LD50 at 168 h (in vivo; ip) [mg/kg]	LD50 at 168 h (in vivo; po) [mg/kg]	IC50 (cloned α1B adrenoceptor) [nM]	IC50 (cloned α1D adrenoceptor) [nM]
COc1cc2nc(N3CCN(C(=O)CC(=O)c4ccccc4)CC3)nc(N)c2cc1OC [Example 13, 4-Amino-6,7-dimethoxy-2-[4-(2-benzoylacetyl)-1-piperazinyl]-quinazoline]	0.056	2.42	7	142	> 3000	–	–	–	–	–
COc1cc2nc(N3CCN(C(=O)COc4c(OC)cccc4C(C)C)CC3)nc(N)c2cc1OC.Cl [Example 24, 4-Amino-6,7-dimethoxy-2-{4-[(2-methoxy-6-isopropylphenoxy)acetyl]-1-piperazinyl}-quinazoline hydrochloride]	–	–	28	–	–	17.2	268	> 3000	–	–
COc1ccc(CC2c3cc(OC)c(OC)cc3CCN2c2nc(N)c3cc(OC)c(OC)cc3n2)cc1OC (centres unmarked) [Example 33, 4-Amino-6,7-dimethoxy-2-[1-(3,4-dimethoxybenzyl)-6,7-dimethoxy-1,2,3,4-tetrahydroisoguinolin-2-yl]-quinazoline hydrochloride hydrate]	–	–	287	884	> 3000	950	–	–	206	1550
COc1cc2nc(N3CCN(C(=O)C4CCCO4)CC3)nc(N)c2cc1OC (centres unmarked) [Terazosin, reference compound]	–	–	–	–	–	66.6	–	–	–	106
COc1cc2nc(N3CCN(C(=O)CC(O)c4ccccc4)CC3)nc(N)c2cc1OC (centres unmarked) [Example 14, 4-Amino-6,7-dimethoxy-2-[4-(3-hydroxy-3-phenylpropionyl)-1-piperazinyl]-quinazoline]	–	–	19	> 1000	> 3000	–	–	–	–	–
COc1cc2nc(N3CCN(C(=O)CCN)CC3)nc(N)c2cc1OC [Example 7, 4-Amino-6,7-dimethoxy-2-[4-(3-aminopropionyl)-1-piperazinyl]-guinazoline dihydrobromide . 1.75 H2 O]	–	–	48	187	> 3000	–	–	–	–	–
